Measured values as given in ChEMBL document CHEMBL3508693 (2016).

Experiments:
[1] = Effect of 2 week oral dosing of aliskiren hemifumarate at 50 mg.Kg-1 level on plasma magnesium level in female Callithrix jacchus; assay type: toxicity, organism-based; conditions: marmoset, 336 h
[2] = Cmax of aliskiren hemifumarate following 2 week oral dosing of aliskiren hemifumarate at 10 mg.Kg-1 level studied on day 1 in female Callithrix jacchus; assay type: ADME, organism-based; conditions: marmoset, plasma
[3] = Tmax of aliskiren hemifumarate following 4 week oral dietary dosing of aliskiren hemifumarate at 2000 mg.Kg-1 level in male mouse; assay type: ADME, organism-based; conditions: CB6F1-TGrasH2, mouse, in vivo
[4] = AUC (0-24h) of aliskiren hemifumarate following 4 week oral dietary dosing of aliskiren hemifumarate at 1000 mg.Kg-1 level in male mouse; assay type: ADME, organism-based; conditions: CB6F1-TGrasH2, mouse, plasma
[5] = Cmax/dose of aliskiren hemifumarate following 4 week oral dietary dosing of aliskiren hemifumarate at 500 mg.Kg-1 level in female mouse; assay type: ADME, organism-based, CB6F1-TGrasH2; conditions: in vivo, 672 h
[6] = Cmax of aliskiren hemifumarate following 4 week oral dietary dosing of aliskiren hemifumarate at 1000 mg.Kg-1 level in female mouse; assay type: ADME, organism-based; conditions: CB6F1-TGrasH2, mouse, in vivo
[7] = AUC (0-24h)/dose of aliskiren hemifumarate following 4 week oral dietary dosing of aliskiren hemifumarate at 2000 mg.Kg-1 level in male mouse; assay type: ADME, organism-based, CB6F1-TGrasH2, Plasma; conditions: in vivo
[8] = Cmaxspec of aliskiren hemifumarate following 2 week oral dosing of aliskiren hemifumarate at 50 mg.Kg-1 level studied on day 1 in female Callithrix jacchus; assay type: ADME, organism-based, Plasma; conditions: marmoset, in vivo, 336 h
[9] = Effect of 2 week oral dosing of aliskiren hemifumarate at 50 mg.Kg-1 level on plasma creatinine level in female Callithrix jacchus; assay type: toxicity, organism-based; conditions: marmoset, 336 h
[10] = Tmax (0-168h) of unlabeled aliskiren hemifumarate following single oral administration of aliskiren hemifumarate at 3 mg.Kg-1 level in marmoset; assay type: ADME, organism-based, Callithrix jacchus; conditions: plasma
[11] = AUC(0-24h) of aliskiren hemifumarate following 2 week oral dosing of aliskiren hemifumarate at 100 mg.Kg-1 level studied on day 14 in female Callithrix jacchus; assay type: ADME, organism-based; conditions: marmoset, plasma
[12] = Effect of 2 week oral dosing of aliskiren hemifumarate at 100 mg.Kg-1 level on hematological parameter values in male Callithrix jacchus; assay type: toxicity, organism-based, Plasma; conditions: marmoset, in vivo, 336 h
[13] = Cmax of aliskiren hemifumarate following single dosing of SPP100B oral solution at 80 mg level studied on day 1 in men; assay type: ADME, organism-based; conditions: male, human, plasma
[14] = AUC(0-24h) of aliskiren hemifumarate following 2 week oral dosing of aliskiren hemifumarate at 10 mg.Kg-1 level studied on day 1 in female Callithrix jacchus; assay type: ADME, organism-based; conditions: marmoset, plasma
[15] = Cmax/dose (0-96h) of unlabeled aliskiren hemifumarate following intravenous administration of aliskiren hemifumarate at 10 mg.Kg-1 level in rat; assay type: ADME, organism-based, Albino HAN:WIST, Plasma; conditions: in vivo
[16] = target: CYP2C19 (Homo sapiens, UniProt P33261); experiment: Inhibitory activity of 200 uM SPP100 on 1156 Pmoles of cDNA-derived CYP2C19 enzyme in microsome prepared from human lymphoblastoid cell line; assay type: ADME, microsomes; design: conc 200 uM, interact cpd conc 50 uM; conditions: probe (S)-mephenytoin (50 uM)
Chain of CYP2C19 (P33261 whole entry): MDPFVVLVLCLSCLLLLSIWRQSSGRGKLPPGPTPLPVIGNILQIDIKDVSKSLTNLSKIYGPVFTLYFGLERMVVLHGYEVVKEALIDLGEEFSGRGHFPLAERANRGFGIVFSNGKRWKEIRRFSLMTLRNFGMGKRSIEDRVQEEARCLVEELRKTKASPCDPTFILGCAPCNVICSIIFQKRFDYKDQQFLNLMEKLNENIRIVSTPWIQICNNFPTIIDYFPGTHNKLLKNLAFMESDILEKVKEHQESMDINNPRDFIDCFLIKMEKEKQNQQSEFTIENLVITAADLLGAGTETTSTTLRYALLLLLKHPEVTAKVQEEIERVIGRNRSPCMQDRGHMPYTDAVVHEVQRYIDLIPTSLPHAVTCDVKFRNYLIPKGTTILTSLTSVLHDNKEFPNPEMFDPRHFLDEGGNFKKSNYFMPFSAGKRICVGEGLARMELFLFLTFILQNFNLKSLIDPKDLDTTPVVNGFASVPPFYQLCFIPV

[17] = target: T1, CYP1A2 (Homo sapiens, UniProt P05177); experiment: Inhibitory activity of 200 uM SPP100 on 578 Pmoles of cDNA-derived CYP1A2 enzyme in microsome prepared from human lymphoblastoid cell line; assay type: ADME, microsomes; design: conc 200 uM, interact cpd conc 50 uM; conditions: probe phenacetin
T1 sequence (P05177 whole entry): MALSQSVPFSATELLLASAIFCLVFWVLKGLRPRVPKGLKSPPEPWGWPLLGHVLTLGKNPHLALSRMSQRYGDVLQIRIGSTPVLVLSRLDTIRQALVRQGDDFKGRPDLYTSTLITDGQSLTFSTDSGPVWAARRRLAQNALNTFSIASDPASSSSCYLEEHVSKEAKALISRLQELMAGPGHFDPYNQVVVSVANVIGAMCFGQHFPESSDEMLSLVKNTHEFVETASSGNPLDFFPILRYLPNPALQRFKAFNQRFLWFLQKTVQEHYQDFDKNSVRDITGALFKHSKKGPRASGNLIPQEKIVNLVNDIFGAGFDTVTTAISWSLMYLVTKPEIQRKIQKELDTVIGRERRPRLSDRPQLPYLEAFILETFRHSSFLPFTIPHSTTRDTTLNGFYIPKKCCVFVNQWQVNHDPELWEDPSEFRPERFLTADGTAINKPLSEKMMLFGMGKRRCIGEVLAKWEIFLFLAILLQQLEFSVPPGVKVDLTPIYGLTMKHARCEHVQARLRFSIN

[18] = target: T2, CYP2A6 (Homo sapiens, UniProt P11509); experiment: Inhibitory activity of 200 uM SPP100 on 37 Pmoles of cDNA-derived CYP2A6 enzyme in microsome prepared from human lymphoblastoid cell line; assay type: ADME, microsomes; design: conc 200 uM, interact cpd conc 3 uM; conditions: probe coumarine
T2 sequence (P11509 whole entry): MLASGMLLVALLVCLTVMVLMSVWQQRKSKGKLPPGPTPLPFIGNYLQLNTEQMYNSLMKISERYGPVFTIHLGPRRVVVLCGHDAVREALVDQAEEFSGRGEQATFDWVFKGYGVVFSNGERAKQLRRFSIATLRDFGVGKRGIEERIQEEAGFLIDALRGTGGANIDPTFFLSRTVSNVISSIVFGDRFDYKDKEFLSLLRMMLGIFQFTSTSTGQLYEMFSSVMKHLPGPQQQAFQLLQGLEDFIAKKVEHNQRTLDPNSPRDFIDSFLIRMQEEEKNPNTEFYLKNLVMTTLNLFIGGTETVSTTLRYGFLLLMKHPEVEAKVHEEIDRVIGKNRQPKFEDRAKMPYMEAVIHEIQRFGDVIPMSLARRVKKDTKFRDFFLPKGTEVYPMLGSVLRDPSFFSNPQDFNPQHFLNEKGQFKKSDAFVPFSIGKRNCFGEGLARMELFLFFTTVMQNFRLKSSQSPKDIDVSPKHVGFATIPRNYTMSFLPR

[19] = Excretion (0-72h) of aliskiren in faeces following intravenous administration of [14C] aliskiren hemifumarate at 1 mg.Kg-1 level in marmoset; assay type: ADME, organism-based, Callithrix jacchus, Feces; conditions: in vivo
[20] = Total excretion (0-72h) of radioactivity in urine, faeces and cage wash following single oral dose of 500 mg.Kg-1 [14C] aliskiren hemifumarate in mouse; assay type: ADME, organism-based, TgRasH2, Urine/Feces; conditions: in vivo
[21] = AUC/dose (0-96h) of total radioactivity following oral administration of [14C] aliskiren hemifumarate at 100 mg.Kg-1 level in rat; assay type: ADME, organism-based, Albino HAN:WIST, Plasma; conditions: in vivo
[22] = Tmax of [14C] aliskiren hemifumarate following single intravenous dose of [14C] aliskiren hemifumarate at 10 mg.Kg-1 level in mouse; assay type: ADME, organism-based, TgRasH2, Plasma; conditions: in vivo
[23] = Excretion of radioactivity (0-96h) in urine following single intravenous dose of 10 mg.Kg-1 [14C] aliskiren hemifumarate in rat; assay type: ADME, organism-based, Albino HAN:WIST; conditions: in vivo
[24] = % of radioactivity (48h) recovered in urine of receiver rat following duodenal infusion of radioactivity through bile from donor rat treated with single intravenous administration of 10 mg.Kg-1 [14C] aliskiren hemifumarate; assay type: ADME, organism-based, HAN:WIST(SPF); conditions: in vivo
[25] = Concentration of radioactivity in the kidney medulla following repeated oral administration of [14C] aliskiren hemifumarate at 100 mg.Kg-1 level studied at 24h after 10th dose in rat; assay type: ADME, organism-based, Albino HAN:WIST, Renal medulla; conditions: in vivo
[26] = Excretion of radioactivity (0-24h) in urine following single oral dose of 100 mg.Kg-1 [14C] aliskiren hemifumarate in rat; assay type: ADME, organism-based, Albino HAN:WIST; conditions: in vivo
[27] = Concentration of radioactivity in the colon wall following repeated oral administration of [14C] aliskiren hemifumarate at 100 mg.Kg-1 level studied at 24h after 3rd dose in rat; assay type: ADME, organism-based, Albino HAN:WIST; conditions: in vivo

Which results are given for `COCCCOc1cc(C[C@@H](C[C@H](N)[C@@H](O)C[C@H](C(=O)NCC(C)(C)C(N)=O)C(C)C)C(C)C)ccc1OC.COCCCOc1cc(C[C@@H](C[C@H](N)[C@@H](O)C[C@H](C(=O)NCC(C)(C)C(N)=O)C(C)C)C(C)C)ccc1OC.O=C(O)/C=C/C(=O)O` [ALISKIREN FUMARATE]?
Plasma magnesium_CHANGE_BY [1]: 130%; Cmax [2]: 3960 ng/mL; Tmax [3]: 1 h; AUC(0-t) at 24 h [4]: 4820 ng·h/mL; Cmax normalised [5]: 0.128 (ng/mL)/(mg/kg/day); Cmax [6]: 167 ng/mL; AUC normalised [7]: 3.86 ((ng/mL).hours)/(mg/kg/day); Cmax normalised [8]: 0.177 (ug/ml)/(mg/kg); CREAT_CHANGE_BY [9]: 130%; Tmax [10]: 2 h; AUC at 24 h [11]: 142000 ng·h/mL; Change in hematology [12]: OUTCOME = Hematological parameter values did not differ from control values. No animals died during the study.; Cmax [13]: 11 ng/mL; AUC(0-t) at 24 h [14]: 21300 ng·h/mL; Cmax normalised [15]: 2.92 (umol/L)/(mg/kg)

Which inhibition at 200 µM [16] does the source give for `COCCCOc1cc(C[C@@H](C[C@H](N)[C@@H](O)C[C@H](C(=O)NCC(C)(C)C(N)=O)C(C)C)C(C)C)ccc1OC` here?
The inhibition at 200 µM was 3%.

What about the inhibition at 200 µM [17] of the same compound?
The inhibition at 200 µM was -12.4%.

And the inhibition at 200 µM [18]?
The inhibition at 200 µM was 2.6%.

What about the Compound recovery [19] of the same compound?
Its Compound recovery is 36%.

For `COCCCOc1cc(C[C@@H](C[C@H](N)[C@@H](O)C[C@H](C(=O)NCC([14CH3])([14CH3])C(N)=O)C(C)C)C(C)C)ccc1OC.O=C(O)/C=C/C(=O)O`, which Radiolabel recovery [20] is on record?
Its Radiolabel recovery is 94.44%.

And the AUC normalised [21]?
The AUC normalised was 0.054 (umol.h/L)/(mg/kg).

And the AUC normalised ([21]; iv, 10 mg/kg)?
The AUC normalised was 0.81 (umol.h/L)/(mg/kg).

What about the Tmax [22] of the same compound?
Its Tmax is 4.98 min.

And the Radiolabel recovery [23]?
Its Radiolabel recovery is 94.4%.

And the Radiolabel recovery [24]?
Its Radiolabel recovery is 0.6%.

What about the Radiolabel recovery [25] of the same compound?
The Radiolabel recovery was “OUTCOME = Detected”.

And the Radiolabel recovery [26]?
Its Radiolabel recovery is 0.47%.

And the Radiolabel recovery [27]?
The Radiolabel recovery was “OUTCOME = Observed, VALUE = Highest radioactivity concentration was observed”.
